Results on 8 compounds are retold here after paper PMC8199030, “Salvia officinalis L.: Antitrypanosomal Activity and Active Constituents against Trypanosoma brucei rhodesiense” (Molecules, 2021).

The nature of series [1]: Cytotoxicity against mammalian L6 cells. Format: cell-based. Particulars: rat.
The subject of series [2] is Trypanosoma brucei rhodesiense (Tbr, bloodstream-form trypomastigotes, STIB 900 strain). To be noted: cited from earlier work.
A short description of a further series: in vitro. To be noted: rat. On the procedure: (§1) Samples with a defined concentration of 2 mg/mL were prepared of each fraction and analyzed by UHPLC/ESI-QqTOF-MS (henceforth abbreviated LC/MS) to determine the analytical fingerprints. After the analysis and dereplication of major peaks (see Figure S1 and Table S1 in Supplementary Material) as well as comparison of the samples’ analytical profiles, 17 representative fractions were selected to be assayed in vitro against Tbr. […] IC50 values for the individual fractions were not determined, in order to save resources and since the % GI data can serve as an approximate substitute in cases where relative activities of similar samples such as the fractions under study are compared.
(§2) Melarsoprol was used as positive control. The cytotoxicity of the compounds was assessed using L6 rat skeletal myoblast cells and podophyllotoxin as a reference drug.
(§3) In vitro assays for the bioactivity against Trypanosoma brucei rhodesiense (Tbr, bloodstream-form trypomastigotes, STIB 900 strain) and cytotoxicity tests against mammalian cells (L6-cell-line from rat skeletal myoblasts) were performed at the Swiss Tropical and Public Health Institute (Swiss TPH, Basel, Switzerland), according to established protocols and as previously described.

Series [3] relates to Trypanosoma brucei rhodesiense (Tbr, bloodstream-form trypomastigotes, STIB 900 strain). As to the kind of experiment: microbe, parasite or virus in culture. To be noted: Trypanosoma brucei, read-out: IC50 Tbr (STIB 900). Here is the method:
as §1, §2, §3

[4] abbreviates: mean of two independent determinations ± deviation from the mean, read-out: IC50 Cytotox L6.
[5] abbreviates: mean of two independent determinations, read-out: IC50 Cytotox L6.

≈ marks a conversion by molar mass, not a printed value. Where “and” joins values, the source holds several entries; their conditions need not be identical. Identical values can stand only once. Like-named read-outs stand apart in the source and are kept apart here.

As for `COc1cc([C@@H]2c3cc4c(cc3[C@H](O)[C@H]3COC(=O)[C@H]23)OCO4)cc(OC)c1OC` [Podophyllotoxin, reference compound], the IC50 – broadly, the concentration that gives 50% inhibition – came out at 0.009 ± 0.001 µg/mL in series [1] (setting [4]) and 0.022 µM in series [1] (setting [5]).

For the compound `COc1cc2oc(-c3ccc(O)cc3)cc(=O)c2c(O)c1OC` [Cirsimaritin (1), 4’,5-dihydroxy-6,7-dimethoxyflavone], in series [1], the IC50 was 4.6 µg/mL and 15 µM. For the same compound, in series [2] (previous study), the “IC50 against Tbr, previous study” value is listed as 3.3 µg/mL (≈ 10.5 µM). Further, the selectivity ratio in “in vitro” worked out at 2.8.

`CO[C@H]1c2cc(C(C)C)c(O)c(O)c2[C@@]23CCCC(C)(C)[C@@H]2[C@@H]1OC3=O` [7-O-Methylrosmanol (5), 7-O-methylrosmanol]: the IC50 in series [1] (setting [4]) is 6.6 ± 0.8 µg/mL; in series [1] (setting [5]), 18 µM; in series [3], 8.3 µg/mL and 23 µM. Moreover, the selectivity ratio in the series “in vitro” was determined as 0.8.

On to `C=C[C@](C)(O)CC[C@H]1C(=C)CC[C@H]2C(C)(C)CCC[C@]12C` [Manool (9), manool], for which the values for the IC50 in series [1] (setting [4]) and in series [1] (setting [5]) were 5.6 ± 0.5 µg/mL and 19 µM, respectively. The selectivity ratio in “in vitro” was determined as 2.1.

`COc1c(C(C)C)cc2c(c1O)[C@@]1(C(=O)O)CCCC(C)(C)[C@@H]1CC2` [12-O-Methylcarnosic acid (8), 12-O-methylcarnosic acid]: the IC50 was 20 µg/mL and 56 µM in series [1]; 15 µg/mL and 44 µM in series [3]. Also, in “in vitro”, the selectivity ratio worked out at 1.3.

Turning to `CC(C)C1=Cc2ccc3c(c2C(=O)C1=O)CCCC3(C)C` [Miltirone, miltirone, reference compound], the “activity against Tbr, previously reported” value in series [2] was “very potent activity”.

In the case of `CC(C)c1cc2c(c(O)c1O)[C@@]13CCCC(C)(C)[C@@H]1[C@H](OC3=O)[C@H]2O` [Compound 3, rosmanol], the IC50 in series [3] was around 8.3 µg/mL (≈ 24 µM).

With `CC(C)c1cc2c(c(O)c1O)[C@@]13CCCC(C)(C)[C@@H]1[C@H](OC3=O)[C@@H]2O` [Epirosmanol (2), epirosmanol], the IC50 is 5 µg/mL and 15 µM in series [1]; 3.2 µg/mL and 9.3 µM in series [3]. Further, the selectivity ratio in “in vitro” worked out at 1.6.
